A short description of the data set: Oral pharmacokinetics of nalbuphine HCl solution versus tablets, fed and fasted, across studies. The conditions noted are these: human, plasma.

The structures appear in SMILES notation. Structures can show the parent of a compound that is named as a salt.

A word on the Tmax: it is the time from dosing to the highest level. The half-life is the time in which the quantity being followed falls by half. Read a high half-life as slow loss. Turning to `Oc1ccc2c3c1O[C@H]1[C@@H](O)CC[C@@]4(O)[C@@H](C2)N(CC2CCC2)CC[C@]314` [nalbuphine, 17-(cyclobutylmethyl)-4,5α-epoxymorphinan-3,6α,14-triol, hydrochloride], the time to peak (Tmax) fell in the range of 30 to 60 min and the half-life lay within 412 to 419 min.

The values are drawn from patent publication US20150359789A1, “METHODS FOR TREATING PRURITUS” (TREVI THERAPEUTICS, INC., priority 2014, published 2015).
